According to patent publication US20230340011A1 (Asteroid Therapeutics, priority 2022, published 2023):

What was measured:
[1] = target: SREBP-2 (Homo sapiens (Human), UniProt Q12772); test: In vitro assay SREBP-2: PathHunter U2OS SREBP-2 Nuclear Translocation Cell Line, U18666A-stimulated; type: cell-based; details: PathHunter U2OS SREBP-2 nuclear translocation cells, U18666A 10 μM, overnight (16 hours)
[2] = target: LXRβ (Homo sapiens (Human), UniProt P55055); test: In vitro assay LXRβ: PathHunter NHR CHO cells, LXRβ / Steroid Receptor Co-activator Peptide enzyme fragment complementation; type: cell-based; details: PathHunter NHR CHO cells, full-length human LXRβ and SRCP, chemiluminescent signal; read-out: LXRβ PPI
LXRβ, sequence (P55055 whole entry, the tested form may be a part): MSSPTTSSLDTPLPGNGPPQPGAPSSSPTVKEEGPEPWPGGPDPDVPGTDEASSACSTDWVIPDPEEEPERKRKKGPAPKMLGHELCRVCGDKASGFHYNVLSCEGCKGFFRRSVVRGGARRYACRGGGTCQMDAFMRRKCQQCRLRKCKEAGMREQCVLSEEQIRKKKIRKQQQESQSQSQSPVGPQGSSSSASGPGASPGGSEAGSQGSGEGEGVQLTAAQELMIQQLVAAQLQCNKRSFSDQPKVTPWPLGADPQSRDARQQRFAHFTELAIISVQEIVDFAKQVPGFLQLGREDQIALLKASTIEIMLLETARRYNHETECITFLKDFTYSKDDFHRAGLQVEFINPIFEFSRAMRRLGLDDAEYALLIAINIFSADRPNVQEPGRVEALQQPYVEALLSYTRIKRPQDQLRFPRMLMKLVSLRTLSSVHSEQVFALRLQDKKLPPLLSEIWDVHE
Method in brief: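 Enzyme fragment complementation read-out: CHO cells stably expressing ProLink-tagged full-length human LXRβ plus nuclear enzyme acceptor–SRCP fusion, seeded and held overnight at 37° C. Medium with charcoal-dextran filtered serum; final vehicle 1%. Chemiluminescence measured after signal generation.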

Compound	IC50 [1] [µM]	EC50 [2] [µM]
C[C@H](COc1cc(CO)ccn1)[C@H]1CC[C@H]2[C@@H]3CC=C4C[C@@H](O)CC[C@]4(C)[C@H]3CC[C@]12C [Example 258, (3S,8S,9S,10R,13S,14S,17R)-17-((S)-1-((4-(hydroxymethyl)pyridin-2-yl)oxy)propan-2-yl)-10,13-dimethyl-2,3,4,7,8,9,10,11,12,13,14,15,16,17-tetradecahydro-1H-cyclopenta[a]phenanthren-3-ol]	< 0.25	> 10
C[C@H](CCC(=O)N1CCN(c2cnccn2)CC1)[C@H]1CC[C@H]2[C@@H]3CC=C4C[C@@H](O)CC[C@]4(C)[C@H]3CC[C@]12C [Example 304, (R)-4-((3S,8S,9S,10R,13R,14S,17R)-3-hydroxy-10,13-dimethyl-2,3,4,7,8,9,10,11,12,13,14,15,16,17-tetradecahydro-1H-cyclopenta[a]phenanthren-17-yl)-1-(4-(pyrazin-2-yl)piperazin-1-yl)pentan-1-one]	< 0.25	> 10
C[C@H](CCC(=O)N(C)CCc1cccnc1)[C@H]1CC[C@H]2[C@@H]3CC=C4C[C@@H](O)CC[C@]4(C)[C@H]3CC[C@]12C [Example 543, (R)-4-((3S,8S,9S,10R,13R,14S,17R)-3-hydroxy-10,13-dimethyl-2,3,4,7,8,9,10,11,12,13,14,15,16,17-tetradecahydro-1H-cyclopenta[a]phenanthren-17-yl)-N-methyl-N-(2-(pyridin-3-yl)ethyl)pentanamide]	< 0.25	0.25 to 1
C[C@H](CCC(=O)N1CCN(c2ncncc2C(F)(F)F)CC1)[C@H]1CC[C@H]2[C@@H]3CC=C4C[C@@H](O)CC[C@]4(C)[C@H]3CC[C@]12C [Example 619, (R)-4-((3S,8S,9S,10R,13R,14S,17R)-3-hydroxy-10,13-dimethyl-2,3,4,7,8,9,10,11,12,13,14,15,16,17-tetradecahydro-1H-cyclopenta[a]phenanthren-17-yl)-1-(4-(5-(trifluoromethyl)pyrimidin-4-yl)piperazin-1-yl)pentan-1-one]	< 0.25	> 10
COc1ncnc(N2CCN(C(=O)CC[C@@H](C)[C@H]3CC[C@H]4[C@@H]5CC=C6C[C@@H](O)CC[C@]6(C)[C@H]5CC[C@]34C)CC2)c1OC [Example 618, (R)-1-(4-(5,6-dimethoxypyrimidin-4-yl)piperazin-1-yl)-4-((3S,8S,9S,10R,13R,14S,17R)-3-hydroxy-10,13-dimethyl-2,3,4,7,8,9,10,11,12,13,14,15,16,17-tetradecahydro-1H-cyclopenta[a]phenanthren-17-yl)pentan-1-one]	< 0.25	> 10
C[C@H](CCc1ccccn1)[C@H]1CC[C@H]2[C@@H]3CC=C4C[C@@H](O)CC[C@]4(C)[C@H]3CC[C@]12C [Example 124, (3S,8S,9S,10R,13R,14S,17R)-10,13-dimethyl-17-((R)-4-(pyridin-2-yl)butan-2-yl)-2,3,4,7,8,9,10,11,12,13,14,15,16,17-tetradecahydro-1H-cyclopenta[a]phenanthren-3-ol]	< 0.25	0.25 to 1
COc1cncnc1N1CCN(C(=O)CC[C@@H](C)[C@H]2CC[C@H]3[C@@H]4CC=C5C[C@@H](O)CC[C@]5(C)[C@H]4CC[C@]23C)C[C@@H]1C [Example 615, (R)-4-((3S,8S,9S,10R,13R,14S,17R)-3-hydroxy-10,13-dimethyl-2,3,4,7,8,9,10,11,12,13,14,15,16,17-tetradecahydro-1H-cyclopenta[a]phenanthren-17-yl)-1-((S)-4-(5-methoxypyrimidin-4-yl)-3-methylpiperazin-1-yl)pentan-1-one]	< 0.25	> 10
CCN(C)C(=O)N1CCN(C(=O)CC[C@@H](C)[C@H]2CC[C@H]3[C@@H]4CC=C5C[C@@H](O)CC[C@]5(C)[C@H]4CC[C@]23C)CC1 [Example 213, N-ethyl-4-((R)-4-((3S,8S,9S,10R,13R,14S,17R)-3-hydroxy-10,13-dimethyl-2,3,4,7,8,9,10,11,12,13,14,15,16,17-tetradecahydro-1H-cyclopenta[a]phenanthren-17-yl)pentanoyl)-N-methylpiperazine-1-carboxamide]	< 0.25	> 10
C[C@H](CCC(=O)N1CCN(C(=O)N(C)C)CC1)[C@H]1CC[C@H]2[C@@H]3CC=C4C[C@@H](O)CC[C@]4(C)[C@H]3CC[C@]12C [Example 339, 4-[(4R)-4-[(1R,3aS,3bS,7S,9aR,9bS,11aR)-7-hydroxy-9a,11a-dimethyl-1H,2H,3H,3aH,3bH,4H,6H,7H,8H,9H,9aH,9bH,10H,11H,11aH-cyclopenta[a]phenanthren-1-yl]pentanoyl]-N,N-dimethylpiperazine-1-carboxamide]	< 0.25	> 10
C[C@H](CCC(=O)N1CCN(c2cc(O)ncn2)CC1)[C@H]1CC[C@H]2[C@@H]3CC=C4C[C@@H](O)CC[C@]4(C)[C@H]3CC[C@]12C [Example 631, (4R)-4-[(1R,3aS,3bS,7S,9aR,9bS,11aR)-7-hydroxy-9a,11a-dimethyl-1H,2H,3H,3aH,3bH,4H,6H,7H,8H,9H,9aH,9bH,10H,11H,11aH-cyclopenta[a]phenanthren-1-yl]-1-[4-(6-hydroxypyrimidin-4-yl)piperazin-1-yl]pentan-1-one]	< 0.25	> 10
C[C@H](CCC(=O)N1CCC(C)(CO)C1)[C@H]1CC[C@H]2[C@@H]3CC=C4C[C@@H](O)CC[C@]4(C)[C@H]3CC[C@]12C (stereo in doubt) [Example 374, (4R)-4-[(1R,3aS,3bS,7S,9aR,9bS,11aR)-7-hydroxy-9a,11a-dimethyl-1H,2H,3H,3aH,3bH,4H,6H,7H,8H,9H,9aH,9bH,10H,11H,11aH-cyclopenta[a]phenanthren-1-yl]-1-[(3R)-3-(hydroxymethyl)-3-methylpyrrolidin-1-yl]pentan-1-one]	< 0.25	0.25 to 1
CC(=O)N(C)[C@H]1CCN(C(=O)CC[C@@H](C)[C@H]2CC[C@H]3[C@@H]4CC=C5C[C@@H](O)CC[C@]5(C)[C@H]4CC[C@]23C)C1 [Example 321, N—((S)-1-((R)-4-((3S,8S,9S,10R,13R,14S,17R)-3-hydroxy-10,13-dimethyl-2,3,4,7,8,9,10,11,12,13,14,15,16,17-tetradecahydro-1H-cyclopenta[a]phenanthren-17-yl)pentanoyl)pyrrolidin-3-yl)-N-methylacetamide]	< 0.25	> 10
Cc1cc(N2CCN(C(=O)CC[C@@H](C)[C@H]3CC[C@H]4[C@@H]5CC=C6C[C@@H](O)CC[C@]6(C)[C@H]5CC[C@]34C)CC2)sn1 [Example 497, (R)-4-((3S,8S,9S,10R,13R,14S,17R)-3-hydroxy-10,13-dimethyl-2,3,4,7,8,9,10,11,12,13,14,15,16,17-tetradecahydro-1H-cyclopenta[a]phenanthren-17-yl)-1-(4-(3-methylisothiazol-5-yl)piperazin-1-yl)pentan-1-one]	< 0.25	> 10
Cc1ncccc1O[C@@H](C)[C@H]1CC[C@H]2[C@@H]3CC=C4C[C@@H](O)CC[C@]4(C)[C@H]3CC[C@]12C [Example 274, (1S,3aS,3bS,7S,9aR,9bS,11aS)-9a,11a-dimethyl-1-[(1S)-1-[(2-methylpyridin-3-yl)oxy]ethyl]-1H,2H,3H,3aH,3bH,4H,6H,7H,8H,9H,9aH,9bH,10H,11H,11aH-cyclopenta[a]phenanthren-7-ol]	0.25 to 1	> 10
